Consider one compound from ChEMBL document CHEMBL4043168, “The design and SAR of a novel series of 2-aminopyridine based LRRK2 inhibitors” (Bioorg Med Chem Lett, 2017).

Assay [1] deals with Serine/threonine-protein kinase WNK1 (Homo sapiens) (UniProt Q9H4A3). Nature of the assay: Inhibition of Wnk1 ATP binding site (GSFKTVYK) in human PBMC at 0.1 uM.
In assay [2] the target is Kinase suppressor of Ras 1 (Homo sapiens) (UniProt Q8IVT5). Nature of the assay: Inhibition of KSR1 activation Loop (SKNVFYDNGK) in human PBMC at 1 uM.
Sequence of Kinase suppressor of Ras 1 (Homo sapiens) (Q8IVT5 whole entry): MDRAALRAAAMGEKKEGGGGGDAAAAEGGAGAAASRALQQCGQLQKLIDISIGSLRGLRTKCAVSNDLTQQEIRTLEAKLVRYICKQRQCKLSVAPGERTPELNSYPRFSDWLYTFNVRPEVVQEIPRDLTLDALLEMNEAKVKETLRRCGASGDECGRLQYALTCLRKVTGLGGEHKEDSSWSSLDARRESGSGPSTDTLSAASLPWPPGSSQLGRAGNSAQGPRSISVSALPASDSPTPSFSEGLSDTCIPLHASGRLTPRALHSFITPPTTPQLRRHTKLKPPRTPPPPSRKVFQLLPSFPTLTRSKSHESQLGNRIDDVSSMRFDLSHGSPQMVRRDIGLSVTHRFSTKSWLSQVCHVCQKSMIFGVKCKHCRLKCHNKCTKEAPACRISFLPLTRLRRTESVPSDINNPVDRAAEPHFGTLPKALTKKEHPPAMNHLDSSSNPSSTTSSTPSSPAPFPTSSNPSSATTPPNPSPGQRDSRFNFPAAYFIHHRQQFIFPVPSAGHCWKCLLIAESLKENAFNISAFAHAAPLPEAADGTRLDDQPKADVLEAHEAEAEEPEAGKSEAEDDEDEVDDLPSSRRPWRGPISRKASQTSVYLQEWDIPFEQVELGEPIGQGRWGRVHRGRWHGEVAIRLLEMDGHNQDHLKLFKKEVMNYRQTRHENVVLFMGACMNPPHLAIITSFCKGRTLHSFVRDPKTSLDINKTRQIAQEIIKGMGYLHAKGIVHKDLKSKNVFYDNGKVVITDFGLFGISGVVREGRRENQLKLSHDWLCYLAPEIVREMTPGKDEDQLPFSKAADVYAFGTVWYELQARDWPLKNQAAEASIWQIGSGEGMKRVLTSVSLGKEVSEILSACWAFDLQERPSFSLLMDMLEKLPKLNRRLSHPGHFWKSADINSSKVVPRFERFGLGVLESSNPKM
For assay [3], the target named is Interferon-induced, double-stranded RNA-activated protein kinase (Homo sapiens) (UniProt P19525). The assay is described as follows: Inhibition of PKR conserved Lys2 (DLKPSNIFLVDTK) in human PBMC at 0.1 uM.
Sequence of Interferon-induced, double-stranded RNA-activated protein kinase (Homo sapiens) (P19525 whole entry): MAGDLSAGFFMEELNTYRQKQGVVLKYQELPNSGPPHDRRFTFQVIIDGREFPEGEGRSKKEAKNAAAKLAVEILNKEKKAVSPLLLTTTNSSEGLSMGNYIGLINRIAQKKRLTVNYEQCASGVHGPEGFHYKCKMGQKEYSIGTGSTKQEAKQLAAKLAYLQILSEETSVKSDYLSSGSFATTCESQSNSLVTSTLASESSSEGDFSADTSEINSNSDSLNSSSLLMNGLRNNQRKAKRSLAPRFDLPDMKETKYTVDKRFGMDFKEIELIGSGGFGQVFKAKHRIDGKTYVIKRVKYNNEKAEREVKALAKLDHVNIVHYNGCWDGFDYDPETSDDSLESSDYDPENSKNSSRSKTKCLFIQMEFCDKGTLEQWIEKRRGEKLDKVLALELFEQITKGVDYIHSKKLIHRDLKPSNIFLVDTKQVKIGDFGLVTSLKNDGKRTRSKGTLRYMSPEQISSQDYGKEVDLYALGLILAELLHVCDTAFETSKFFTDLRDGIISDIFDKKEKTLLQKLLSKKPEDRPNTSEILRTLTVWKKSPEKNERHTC
The target of assay [4] is T1, Inhibitor of nuclear factor kappa-B kinase subunit epsilon (Homo sapiens) (UniProt Q14164).
T1 sequence (whole entry): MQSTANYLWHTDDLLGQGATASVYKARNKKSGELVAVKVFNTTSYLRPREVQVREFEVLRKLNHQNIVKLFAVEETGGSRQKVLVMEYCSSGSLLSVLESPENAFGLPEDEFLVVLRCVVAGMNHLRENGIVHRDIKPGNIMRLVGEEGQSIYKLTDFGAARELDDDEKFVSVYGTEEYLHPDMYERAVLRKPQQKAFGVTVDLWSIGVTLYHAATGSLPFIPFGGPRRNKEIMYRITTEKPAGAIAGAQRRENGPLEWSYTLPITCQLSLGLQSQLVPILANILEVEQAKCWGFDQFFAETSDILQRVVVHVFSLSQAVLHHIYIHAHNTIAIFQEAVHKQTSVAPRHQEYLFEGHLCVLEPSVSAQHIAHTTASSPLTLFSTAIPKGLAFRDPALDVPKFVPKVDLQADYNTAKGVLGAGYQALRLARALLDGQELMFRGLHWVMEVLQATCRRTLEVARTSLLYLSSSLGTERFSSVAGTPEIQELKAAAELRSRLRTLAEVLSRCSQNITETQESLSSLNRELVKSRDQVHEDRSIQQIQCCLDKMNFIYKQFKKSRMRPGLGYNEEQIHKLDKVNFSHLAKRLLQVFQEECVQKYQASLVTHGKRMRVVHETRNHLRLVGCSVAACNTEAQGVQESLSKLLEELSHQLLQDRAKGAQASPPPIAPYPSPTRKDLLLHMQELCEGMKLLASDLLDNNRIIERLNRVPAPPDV
The assay is described as follows: Inhibition of IKKe conserved Lys1 (SGELVAVKVFNTTSYLRPR) in human PBMC at 0.1 uM.

The target in assay [5] is T2, Mitogen-activated protein kinase kinase kinase 5 (Homo sapiens) (UniProt Q99683).
T2 sequence (whole entry): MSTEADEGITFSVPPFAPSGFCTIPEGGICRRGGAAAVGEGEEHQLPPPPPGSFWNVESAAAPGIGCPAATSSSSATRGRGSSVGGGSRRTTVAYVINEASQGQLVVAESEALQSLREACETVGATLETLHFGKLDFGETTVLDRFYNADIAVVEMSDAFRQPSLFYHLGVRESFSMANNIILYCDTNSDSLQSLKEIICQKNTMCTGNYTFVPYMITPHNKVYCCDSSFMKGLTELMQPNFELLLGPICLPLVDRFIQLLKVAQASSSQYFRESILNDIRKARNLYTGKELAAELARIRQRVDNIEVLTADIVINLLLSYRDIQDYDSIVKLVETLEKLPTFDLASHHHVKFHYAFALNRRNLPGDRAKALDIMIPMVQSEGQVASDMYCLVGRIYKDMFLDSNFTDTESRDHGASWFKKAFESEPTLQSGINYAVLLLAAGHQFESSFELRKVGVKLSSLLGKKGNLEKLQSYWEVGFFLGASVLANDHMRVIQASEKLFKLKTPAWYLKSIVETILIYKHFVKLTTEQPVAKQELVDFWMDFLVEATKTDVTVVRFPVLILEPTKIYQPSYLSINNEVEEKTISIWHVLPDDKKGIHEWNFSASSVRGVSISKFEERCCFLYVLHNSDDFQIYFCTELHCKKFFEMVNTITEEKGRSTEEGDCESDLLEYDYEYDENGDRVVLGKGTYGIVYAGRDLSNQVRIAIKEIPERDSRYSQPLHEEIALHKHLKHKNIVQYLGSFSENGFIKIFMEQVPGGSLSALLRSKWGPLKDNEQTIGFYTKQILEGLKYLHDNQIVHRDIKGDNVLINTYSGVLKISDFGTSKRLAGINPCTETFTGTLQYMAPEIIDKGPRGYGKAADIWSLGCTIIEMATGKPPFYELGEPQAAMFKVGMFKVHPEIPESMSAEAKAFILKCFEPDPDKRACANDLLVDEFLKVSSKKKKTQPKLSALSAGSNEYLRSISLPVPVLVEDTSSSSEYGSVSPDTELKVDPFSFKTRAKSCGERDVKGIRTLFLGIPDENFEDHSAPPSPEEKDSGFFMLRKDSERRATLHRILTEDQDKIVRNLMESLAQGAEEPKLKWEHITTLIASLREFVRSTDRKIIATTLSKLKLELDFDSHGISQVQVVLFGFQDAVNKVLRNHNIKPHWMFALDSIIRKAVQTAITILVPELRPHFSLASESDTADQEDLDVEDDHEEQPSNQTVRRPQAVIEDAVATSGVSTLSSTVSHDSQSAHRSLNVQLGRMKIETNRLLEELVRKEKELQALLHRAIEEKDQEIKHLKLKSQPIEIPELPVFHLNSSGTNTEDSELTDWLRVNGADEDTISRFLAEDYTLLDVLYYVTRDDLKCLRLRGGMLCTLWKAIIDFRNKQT
The assay is described as follows: Inhibition of MAP3K5 conserved Lys2 (DIKGDNVLINTYSGVLK) in human PBMC at 0.1 uM.

Assay [6] has as its target Mitogen-activated protein kinase 3 (Homo sapiens) (UniProt P27361). Nature of the assay: Inhibition of Erk1 ATP binding site (DLKPSNLLINTTCDLK) in human PBMC at 1 uM.
In assay [7] the target is Mitogen-activated protein kinase kinase kinase 7 (Homo sapiens) (UniProt O43318). Nature of the assay: Inhibition of TAK1 conserved Lys2 (DLKPPNLLLVAGGTVLK) in human PBMC at 0.1 uM.
Sequence of Mitogen-activated protein kinase kinase kinase 7 (Homo sapiens) (O43318 whole entry): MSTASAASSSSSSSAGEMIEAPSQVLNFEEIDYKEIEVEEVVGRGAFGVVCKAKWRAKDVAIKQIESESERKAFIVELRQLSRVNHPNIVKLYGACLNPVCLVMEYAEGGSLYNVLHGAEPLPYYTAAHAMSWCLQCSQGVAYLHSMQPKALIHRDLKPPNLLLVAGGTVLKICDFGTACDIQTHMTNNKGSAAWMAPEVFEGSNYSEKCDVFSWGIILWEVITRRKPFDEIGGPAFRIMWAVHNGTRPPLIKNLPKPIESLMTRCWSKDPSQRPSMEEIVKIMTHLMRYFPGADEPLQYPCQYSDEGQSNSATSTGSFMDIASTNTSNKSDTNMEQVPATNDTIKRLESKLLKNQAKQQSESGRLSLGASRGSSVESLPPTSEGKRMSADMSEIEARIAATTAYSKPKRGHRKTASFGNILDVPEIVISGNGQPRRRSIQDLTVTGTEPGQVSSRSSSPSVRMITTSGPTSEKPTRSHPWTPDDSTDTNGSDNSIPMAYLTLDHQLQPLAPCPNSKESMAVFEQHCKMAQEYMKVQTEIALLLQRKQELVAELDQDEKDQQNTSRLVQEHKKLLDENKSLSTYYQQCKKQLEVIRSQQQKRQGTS

Sequence of Serine/threonine-protein kinase WNK1 (Homo sapiens) (Q9H4A3 whole entry, looked up): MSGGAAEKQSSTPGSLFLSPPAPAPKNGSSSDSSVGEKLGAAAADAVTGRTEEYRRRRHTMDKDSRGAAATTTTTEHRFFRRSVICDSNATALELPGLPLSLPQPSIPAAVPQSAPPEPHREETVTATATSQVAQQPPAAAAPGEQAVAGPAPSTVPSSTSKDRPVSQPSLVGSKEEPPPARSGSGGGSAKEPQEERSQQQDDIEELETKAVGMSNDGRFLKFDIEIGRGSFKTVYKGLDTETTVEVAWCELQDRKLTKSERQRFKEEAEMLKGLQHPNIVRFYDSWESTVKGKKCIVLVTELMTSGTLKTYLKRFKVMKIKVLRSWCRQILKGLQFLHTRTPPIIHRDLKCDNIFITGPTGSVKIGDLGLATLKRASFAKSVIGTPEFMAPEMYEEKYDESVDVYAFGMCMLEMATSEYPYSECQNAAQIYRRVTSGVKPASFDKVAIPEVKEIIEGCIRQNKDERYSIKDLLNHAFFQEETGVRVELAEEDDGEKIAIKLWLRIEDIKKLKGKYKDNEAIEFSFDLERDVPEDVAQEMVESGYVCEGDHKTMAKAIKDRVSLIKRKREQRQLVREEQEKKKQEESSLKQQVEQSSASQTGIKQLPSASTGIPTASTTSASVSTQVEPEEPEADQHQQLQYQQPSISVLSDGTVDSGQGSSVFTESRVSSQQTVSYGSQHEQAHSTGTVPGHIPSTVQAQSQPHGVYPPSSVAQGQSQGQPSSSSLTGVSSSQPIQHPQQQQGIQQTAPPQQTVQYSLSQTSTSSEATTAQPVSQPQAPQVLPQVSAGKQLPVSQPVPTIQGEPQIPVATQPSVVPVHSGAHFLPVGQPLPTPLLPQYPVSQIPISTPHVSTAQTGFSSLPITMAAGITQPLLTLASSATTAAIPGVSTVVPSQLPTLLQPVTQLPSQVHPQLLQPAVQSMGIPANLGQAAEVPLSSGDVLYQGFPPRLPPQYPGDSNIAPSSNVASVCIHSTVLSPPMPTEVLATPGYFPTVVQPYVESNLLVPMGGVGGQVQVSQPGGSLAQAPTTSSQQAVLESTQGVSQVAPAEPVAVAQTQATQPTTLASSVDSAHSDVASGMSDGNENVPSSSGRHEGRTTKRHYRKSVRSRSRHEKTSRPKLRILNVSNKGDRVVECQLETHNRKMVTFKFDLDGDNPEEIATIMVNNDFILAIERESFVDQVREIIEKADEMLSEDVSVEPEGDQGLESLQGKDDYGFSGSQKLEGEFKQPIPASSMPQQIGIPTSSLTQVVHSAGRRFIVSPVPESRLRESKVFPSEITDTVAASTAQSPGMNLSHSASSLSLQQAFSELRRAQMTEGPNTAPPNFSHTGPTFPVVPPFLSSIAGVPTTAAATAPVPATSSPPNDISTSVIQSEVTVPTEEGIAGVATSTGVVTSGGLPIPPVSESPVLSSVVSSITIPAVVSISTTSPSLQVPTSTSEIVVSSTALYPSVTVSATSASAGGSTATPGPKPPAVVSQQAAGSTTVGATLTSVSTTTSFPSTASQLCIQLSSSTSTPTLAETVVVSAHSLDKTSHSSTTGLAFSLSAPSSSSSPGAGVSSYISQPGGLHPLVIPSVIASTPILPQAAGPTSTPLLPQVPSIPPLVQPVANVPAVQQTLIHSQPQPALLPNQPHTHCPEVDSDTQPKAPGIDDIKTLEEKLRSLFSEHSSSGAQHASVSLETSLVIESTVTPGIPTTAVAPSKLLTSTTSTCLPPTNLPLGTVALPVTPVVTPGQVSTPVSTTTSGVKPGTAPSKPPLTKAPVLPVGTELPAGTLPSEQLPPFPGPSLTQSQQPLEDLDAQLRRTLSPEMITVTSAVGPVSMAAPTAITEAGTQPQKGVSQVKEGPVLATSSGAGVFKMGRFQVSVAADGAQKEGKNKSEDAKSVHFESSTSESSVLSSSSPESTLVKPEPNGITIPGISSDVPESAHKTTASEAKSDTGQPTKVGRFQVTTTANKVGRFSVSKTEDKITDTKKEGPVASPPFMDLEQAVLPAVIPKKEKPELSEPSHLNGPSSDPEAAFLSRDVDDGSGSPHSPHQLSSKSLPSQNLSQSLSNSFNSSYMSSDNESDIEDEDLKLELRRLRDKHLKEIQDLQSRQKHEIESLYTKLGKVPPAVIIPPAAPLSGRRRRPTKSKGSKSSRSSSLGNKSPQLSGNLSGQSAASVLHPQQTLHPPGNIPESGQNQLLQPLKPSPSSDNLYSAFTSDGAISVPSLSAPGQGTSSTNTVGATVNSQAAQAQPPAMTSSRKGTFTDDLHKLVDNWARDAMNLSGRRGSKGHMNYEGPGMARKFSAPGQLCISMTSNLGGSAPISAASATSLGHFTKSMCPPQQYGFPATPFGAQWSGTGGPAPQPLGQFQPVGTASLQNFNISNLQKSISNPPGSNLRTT
Sequence of Mitogen-activated protein kinase 3 (Homo sapiens) (P27361 whole entry): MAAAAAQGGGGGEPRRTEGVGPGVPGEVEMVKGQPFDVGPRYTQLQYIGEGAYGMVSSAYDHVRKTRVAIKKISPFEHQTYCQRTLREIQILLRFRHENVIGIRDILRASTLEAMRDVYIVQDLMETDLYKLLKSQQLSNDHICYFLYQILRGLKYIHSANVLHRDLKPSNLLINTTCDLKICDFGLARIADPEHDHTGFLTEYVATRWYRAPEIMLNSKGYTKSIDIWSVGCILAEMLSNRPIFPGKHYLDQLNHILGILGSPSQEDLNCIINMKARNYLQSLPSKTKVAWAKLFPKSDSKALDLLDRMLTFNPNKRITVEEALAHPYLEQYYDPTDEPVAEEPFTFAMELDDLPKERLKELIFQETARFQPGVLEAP

For the compound `CC(C)n1cc(-c2cc(-c3ccc(CN4CCOCC4)cc3)cnc2N)nn1`, the inhibition in assay [1] amounted to 18.3%; in assay [2], 20.1%; in assay [3] it was 13.7%; in assay [4], 6.2%; in assay [5] it was 11%; in assay [6] it was 4.2%. In addition, in assay [7], the inhibition is -0.4%.

One may read the inhibition as the relative decrease from the control value, in per cent.
